{"source": "paper PMC12430079", "about": "“Comprehensive UPLC-MS/MS Method for Quantifying Four Key Intestinal Permeability Markers in Caco-2 Models” (Molecules, 2025)", "key": {"[1]": {"tested_on": "Caco-2 cells", "settings": "4 h, 37 °C"}, "[2]": {"experiment": "physchem", "settings": "Recovery under stability condition", "experimental": "These tests included assessing short-term stability at room temperature, long-term stability during storage at −20 °C for up to 45 days, and stability across three freeze-thaw cycles. Additionally, the stability of the analytes was tested in the media used for intestinal permeability assays, specifically HBSS with MES and HEPES buffers at pH 6.0 and 7.4."}, "[3]": {"experiment": "in vitro", "settings": "human, Caco-2"}, "[4]": {"tested_on": "Caco-2 cell monolayer", "settings": "Caco-2 monolayer, apical pH 6.0 / basolateral pH 7.4, 4 h, without verapamil as inhibitor"}}, "note": "Where two headings read alike, the source gives them in different places."}
{"smiles": "CC(C)NCC(O)COc1ccc(CC(N)=O)cc1", "note": "(stereo not drawn) [Atenolol, atenolol]", "values": [{"measurement": "Cytotoxicity (LDH release)", "setting": "[1]; 50 µM", "result": "did not induce cytotoxicity"}]}
{"smiles": "CC(C)NCC(O)COc1cccc2ccccc12", "note": "(stereo not drawn) [Propranolol, propranolol]", "values": [{"measurement": "recovery", "setting": "[2]", "result": "86.5 ± 21", "unit": "%"}, {"measurement": "recovery at 36 d", "setting": "[2]", "result": "87.7 ± 5.12", "unit": "%"}, {"measurement": "efflux ratio", "setting": "[3]", "result": "~1"}, {"measurement": "Apparent permeability (Papp) A→B", "setting": "[4]", "result": "high"}, {"measurement": "Apparent permeability (Papp) B→A", "setting": "[4]", "result": "high"}, {"measurement": "Cytotoxicity (LDH release)", "setting": "[1]; 5 µM", "result": "did not induce cytotoxicity"}]}
{"smiles": "C=C[C@H]1C[N@@]2CC[C@H]1C[C@@H]2[C@@H](O)c1ccnc2ccc(OC)cc12", "note": "[Quinidine, quinidine]", "values": [{"measurement": "recovery", "setting": "[2]", "result": "87.5 ± 6.3", "unit": "%"}, {"measurement": "recovery at 36 d", "setting": "[2]", "result": "86.2 ± 1.2", "unit": "%"}]}
